Test results: patent publication US8163909B2, “Substituted hydroxyethyl amine compounds as beta-secretase modulators and methods of use” (Amgen Inc., priority 2007, dated 2012)
Where two headings read alike, the source gives them in different places.

What was measured:
[1] = target: Beta Secretase enzyme (BACE) (Homo sapiens, UniProt P56817); experiment: In vitro enzymatic BACE FRET (fluorescence resonance energy transfer) assay; assay type: biochemical;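 also: fluorescence read after 1 h with 50 nM quenched peptide substrate spanning the BACE cleavage site, in pH 4.2 acetate buffer containing 10% DMSO and nonionic detergent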
Sequence of Beta Secretase enzyme (BACE) (P56817 46-501): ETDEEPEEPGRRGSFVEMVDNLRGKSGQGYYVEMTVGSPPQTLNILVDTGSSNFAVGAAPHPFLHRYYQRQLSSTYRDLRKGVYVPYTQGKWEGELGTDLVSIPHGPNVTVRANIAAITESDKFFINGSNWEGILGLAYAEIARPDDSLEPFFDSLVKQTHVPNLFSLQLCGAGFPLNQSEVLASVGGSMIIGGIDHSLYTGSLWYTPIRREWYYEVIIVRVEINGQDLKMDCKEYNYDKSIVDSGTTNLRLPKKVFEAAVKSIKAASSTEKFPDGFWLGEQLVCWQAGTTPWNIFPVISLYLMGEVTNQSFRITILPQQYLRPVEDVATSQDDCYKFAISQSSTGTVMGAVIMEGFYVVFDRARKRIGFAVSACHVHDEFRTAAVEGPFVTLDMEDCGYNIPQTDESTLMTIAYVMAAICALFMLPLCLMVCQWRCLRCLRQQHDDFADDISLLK

[2] = tested on: Aβ40 in conditioned medium of cells stably expressing Amyloid Precursor Protein (APP); experiment: In vitro BACE cell-based assay (Aβ40 in conditioned medium, sandwich ELISA);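 also: compounds added as a dilution series, secreted peptide quantified by europium time-resolved fluorescence readout, potency fitted from percent of control versus compound concentration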
[3] = BACE enzyme assay, read-out: BACE1 FRET assay (IC50)
[4] = Homo sapiens, HEK293, HEK cells, cell-based assay, read-out: HEK cell assay (IC50)
[5] = BACE enzyme FRET assay, read-out: BACE1 FRET assay (IC50)

Compound | IC50 [1, 3] [µM] | IC50 [2, 4] [µM] | other results
COCC(=O)N[C@@H](Cc1ccc2c(c1)OCO2)[C@H](O)CN[C@H]1CC2(CCC2)Oc2c1cc(CC(C)(C)C)nc2Cl [compound 127, N-((1S,2R)-1-(1,3-benzodioxol-5-ylmethyl)-3-(((4′S)-8′-chloro-6′-(2,2-dimethylpropyl)-3′,4′-dihydrospiro[cyclobutane-1,2′-pyrano[2,3-c]pyridin]-4′-yl)amino)-2-hydroxypropyl)-2-(methyloxy)acetamide] | 0.0255 | 0.0678 | –
CC(C)(C)Cc1cnc2c(c1)[C@@H](NC[C@@H](O)[C@H](Cc1cc(F)cc(F)c1)NC(=O)CCl)CC1(CCC1)O2 [compound 104] | 0.00369 | – | IC50 ([2]; HEK cells, cell-based assay, read-out: HEK cell assay (IC50)): 0.0187 µM
CC(=O)N[C@@H](Cc1ccc2c(c1)OCO2)[C@H](O)CN[C@H]1CC2(CC(F)(F)C2)Oc2ncc(CC(C)(C)C)cc21 [compound 55] | 0.0236 | 0.083 | –
CC(=O)N[C@@H](Cc1ccc(F)cc1)[C@H](O)CN[C@H]1CC2(CCC2)Oc2c(F)cc(CC(C)(C)C)cc21 [compound 174] | 0.0072 | 0.0526 | –
CC(=O)N[C@@H](Cc1ccc(Cl)c(F)c1)[C@H](O)CN[C@H]1CC2(CCC2)Oc2ncc(CC(C)(C)C(F)F)cc21 [compound 225] | – | 0.0239 | IC50 [1, 5]: 0.00922 µM
C=Cc1cccc(C[C@H](NC(=O)COC)[C@H](O)CN[C@H]2CC3(CCC3)Oc3ncc(CC(C)C)cc32)c1 [compound 832] | – | – | IC50 ([1]; BACE enzyme assay, IC50's in uM, read-out: BACE1 FRET assay): 0.007 µM; IC50 ([2]; Homo sapiens, HEK293, HEK cell-based assay, IC50's in uM, read-out: HEK cell assay): 0.038 µM
COCC(=O)N[C@@H](Cc1ccc(F)cc1)[C@H](O)CN[C@H]1CC2(CCC2)Oc2ccc(CC(C)(C)C#N)cc21 [compound 162] | 0.0446 | 0.0311 | –
CC(C)(C)Cc1cnc2c(c1)[C@@H](NC[C@@H](O)[C@H](Cc1ccc(F)cc1)NC(=O)[C@@H](O)C(F)(F)F)CC1(CCC1)O2 [compound 69] | 0.0336 | 0.0784 | –
CO[C@H](C)C(=O)N[C@@H](Cc1cc(F)cc(F)c1)[C@H](O)CN[C@H]1CC2(CCC2)Oc2ncc(CC(C)(C)C(F)F)cc21 [compound 228] | – | 0.00756 | IC50 [1, 5]: 0.00615 µM
COCC(=O)N[C@@H](Cc1ccc2c(c1)OCO2)[C@H](O)CN[C@H]1CC2(CCC2)Oc2ncc([C@H](F)C(C)(C)C)cc21 [compound 183] | 0.00863 | 0.0178 | –
CC(=O)N[C@@H](Cc1ccc2c(c1)OCO2)[C@H](O)CN[C@H]1CC2(CCC2)Oc2ncc([C@H](F)C(C)(C)C)cc21 [compound 182] | 0.00701 | 0.016 | –
CC(C)(C)Cc1cnc2c(c1)[C@@H](NC[C@@H](O)[C@H](Cc1cccc(F)c1)NC(=O)C(Cl)Cl)CC1(CCC1)O2 [compound 105] | 0.00406 | 0.0295 | –
CC(=O)NC(Cc1ccc(F)cc1)C(O)CNC1CC2(CC(C#N)C2)Oc2ncc(CC(C)(C)C)cc21 [compound 260, N-((1S,2R)-3-(((1s,3R,4′S)-3-cyano-6′-(2,2-dimethylpropyl)-3′,4′-dihydrospiro[cyclobutane-1,2′-pyrano[2,3-b]pyridin]-4′-yl)amino)-1-((4-fluorophenyl)methyl)-2-hydroxypropyl)acetamide] | – | 0.0702 | IC50 [1, 5]: 0.0987 µM
COC(C(=O)N[C@@H](Cc1ccc(F)cc1)[C@H](O)CN[C@H]1CC2(CCC2)Oc2ncc(CC(C)(C)C)cc21)C(F)(F)F (stereo partly drawn) [compound 59] | 0.364 | 0.171 | –
CO[C@H](C)C(=O)N[C@@H](Cc1cc(F)c2c(c1)OCO2)[C@H](O)CN[C@H]1CC2(CCC2)Oc2ncc(CC(C)(C)C)cc21 [compound 303] | – | 0.0214 | IC50 [1, 5]: 0.00901 µM
CO[C@H](C)C(=O)N[C@@H](Cc1cccc(F)c1)[C@H](O)CN[C@H]1CC2(CCC2)Oc2c(F)cc(CC(C)(C)C)cc21 [compound 222] | – | 0.0127 | IC50 [1, 5]: 0.00445 µM
COCC(=O)N[C@@H](Cc1ccc2c(c1)OCO2)[C@H](O)CN[C@H]1CC2(CCC2)Oc2ncc(CCC(F)(F)F)cc21 [compound 195] | – | 0.621 | IC50 [1, 5]: 0.754 µM
COCC(=O)N[C@@H](Cc1ccc2c(c1)OCO2)[C@H](O)CN[C@H]1CC2(CCC2)Oc2ncc(C[C@@H](C)C(F)(F)F)cc21 [compound 341] | – | – | IC50 ([1]; Table 1, read-out: BACE1 FRET assay): 0.0595 µM; IC50 ([2]; Homo sapiens, HEK293, Table 1, HEK cells, read-out: HEK cell assay): 0.138 µM
COCC(=O)N[C@@H](Cc1cc(F)cc(-c2nccn2C)c1)[C@H](O)CN[C@H]1CC2(CCC2)Oc2ncc(CC(C)(C)C)cc21 [compound 740, N-((1S,2R)-3-(((4′S)-6′-(2,2-dimethylpropyl)-3′,4′-dihydrospiro[cyclobutane-1,2′-pyrano[2,3-b]pyridin]-4′-yl)amino)-1-(3-fluoro-5-(1-methyl-1H-imidazol-2-yl)benzyl)-2-hydroxypropyl)-2-methoxyacetamide] | – | – | IC50 ([1]; BACE enzyme assay IC50, read-out: BACE1 FRET assay): 0.051 µM; IC50 ([2]; Homo sapiens, HEK293, HEK cell-based assay IC50, read-out: HEK cell assay): 0.006 µM
COCC(=O)N[C@@H](Cc1ccc2c(c1)OCO2)[C@H](O)CN[C@H]1CC2(CCC2)Oc2c1cc(CC(C)(C)C)nc2N [compound 129] | 0.119 | 0.0309 | –
CO[C@H](C)C(=O)N[C@@H](Cc1ccc(F)cc1)[C@H](O)CN[C@H]1CC2(CCC2)Oc2c(-c3ccncc3)cc(CC(C)(C)F)cc21 [compound 577] | – | – | IC50 ([1]; read-out: BACE1 FRET assay (IC50)): 0.115 µM; IC50 ([2]; Homo sapiens, HEK293, HEK cells, read-out: HEK cell assay (IC50)): 0.057 µM
